Measurements as given in patent US11939318B2, “LPA receptor antagonists and uses thereof” (Gilead Sciences, Inc., priority 2021, dated 2024).

Each compound was assayed against T1, human LPAR1 (Homo sapiens, UniProt Q92633) (assay: LPAR1 intracellular calcium mobilization assay (antagonist mode, CHO-K1 EDG2 cells, FLIPR)). Conditions: antagonist activity; CHO-K1 EDG2 cells expressing human LPAR1; 60 min pre-incubation at 37° C., then LPA 18:2 at EC80 concentration (100 nM); test compound 0.5 nM to 10 μM; read-out: LPAR1 (EC50; nM).
T1 construct: host or cells: CHO-K1
Assay type: cell-based
Procedure: In vitro LPAR1 activity was measured in an intracellular calcium mobilization assay.
CHO-K1 EDG2 cells (DiscoverX cat #93-0644C2) expressing human LPAR1 (NM_001401.3) were seeded in a total volume of 25 μL of Dulbecco's Modification of Eagle's Medium (DMEM) with 10% Fetal Bovine Serum, 1× PenStrepGlutamine, 300 μg/ml Hygromycin, and 800 μg/ml G418 into 384-well tissue culture plate (Grenier #781091) at 15,000 cells/well and incubated at 37° C. overnight. Prior to testing, 25 μL Calcium Loading Dye Component A (FLIPR Calcium 6 Assay Kit Molecular Device #R8190) and 2.5 mM Probenecid (Invitrogen #P36400, prepared fresh) in Hank's Balanced Salt Solution (Corning #21-023-CV), 20 mM HEPES (Corning #25-060-CI), 0.1% Bovine Serum Albumin (Sigma-Aldrich #A7906-500G) was add to the cells for 60 minutes at 37° C.
Agonist dose curves of LPA 18:2 (Avanti Polar Lipids cat #857138, 0.5 nM to 10 μM) were recorded to determine the LPA 18:2 EC80 for subsequent antagonist assays. For agonist dose curves, cells were removed from the incubator 2 hours after dye loading and transferred to the FLIPR Tetra instrument (Molecular Devices, San Jose, CA). Calcium mobilization was monitored for […] and 10 μL 6× LPA in HBSS/20 mM Hepes/0.1% bovine serum albumin (BSA) was added to the cells 5 seconds into the assay.
To determine the LPAR1 antagonist activity of test compounds, cells were pre-incubated with test compound at a dose range of 0.5 nM to 10 μM, followed by LPA at EC80 concentration (100 nM). After dye loading, cells were removed from the incubator and 0.3 μL of 200X antagonist was added. Cells were incubated for 60 minutes at 37° C. Antagonist activity was measured on a FLIPR Tetra. Calcium mobilization was monitored for 3.5 minutes and 10 μL 6X EC80 LPA in HBSS, 20 mM HEPES, and 0.1% BSA was added to the cells 5 seconds into the assay. Signal amplitude (Maximum minus minimum) values were plotted against log10 of antagonist concentration using Dose Response Tool (Gilead Sciences Inc.) to determine EC50.
The compound numbers correspond to the compound numbers in Examples 1 to13.

T1 sequence (Q92633 whole entry): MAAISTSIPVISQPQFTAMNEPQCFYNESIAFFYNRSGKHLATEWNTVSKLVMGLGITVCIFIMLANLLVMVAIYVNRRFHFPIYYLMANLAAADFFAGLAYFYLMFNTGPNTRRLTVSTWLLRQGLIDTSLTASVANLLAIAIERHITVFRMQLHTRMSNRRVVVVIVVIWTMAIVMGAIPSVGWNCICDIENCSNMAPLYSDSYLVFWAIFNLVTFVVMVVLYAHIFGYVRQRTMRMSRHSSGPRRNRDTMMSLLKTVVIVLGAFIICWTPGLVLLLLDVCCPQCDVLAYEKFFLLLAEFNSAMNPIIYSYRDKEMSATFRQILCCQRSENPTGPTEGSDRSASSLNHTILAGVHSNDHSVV

IC50 [nM]	Structure (SMILES)
22	C[C@@H](OC(=O)Nc1c(-c2ccc(NC(=O)c3cnc(-c4cccc(Cl)c4)nc3)cn2)nnn1C)c1cc(F)cnc1F [Compound 8, (R)-1-(2,5-difluoropyridin-3-yl)ethyl (4-(5-(2-(3-chlorophenyl)pyrimidine-5-carboxamido)pyridin-2-yl)-1-methyl-1H-1,2,3-triazol-5-yl)carbamate]
261	Cc1nc(-c2nnn(C)c2NC(=O)O[C@H](C)c2cc(F)cnc2F)ccc1NC(=O)c1cnc(C2CC2)o1 [Compound 7, (R)-1-(2,5-difluoropyridin-3-yl)ethyl (4-(5-(2-cyclopropyloxazole-5-carboxamido)-6-methylpyridin-2-yl)-1-methyl-1H-1,2,3-triazol-5-yl)carbamate]
34	Cc1nc(-c2nnn(C)c2NC(=O)O[C@H](C)c2cc(F)cnc2F)ccc1NC(=O)C1(CN)CC(F)(F)C1 [Compound 9, (R)-1-(2,5-difluoropyridin-3-yl)ethyl (4-(5-(1-(aminomethyl)-3,3-difluorocyclobutane-1-carboxamido)-6-methylpyridin-2-yl)-1-methyl-1H-1,2,3-triazol-5-yl)carbamate]
176	C[C@@H](OC(=O)Nc1c(-c2ccc(NC(=O)c3ccc(C4CC4)nc3)cn2)nnn1C)c1cc(F)cnc1F [Compound 6, (R)-1-(2,5-difluoropyridin-3-yl)ethyl (4-(5-(6-cyclopropylnicotinamido)pyridin-2-yl)-1-methyl-1H-1,2,3-triazol-5-yl)carbamate]
1260	COC1(C(=O)Nc2ccc(-c3nnn(C)c3NC(=O)O[C@H](C)c3cccnc3Cl)nc2)CC1 [Compound 4, (R)-1-(2-chloropyridin-3-yl)ethyl (4-(5-(1-methoxycyclopropane-1-carboxamido)pyridin-2-yl)-1-methyl-1H-1,2,3-triazol-5-yl)carbamate]
13	C[C@@H](OC(=O)Nc1c(-c2ccc(NC(=O)C34CC(c5ccccc5)(C3)C4)cn2)nnn1C)c1cc(F)cnc1F [Compound 10, (R)-1-(2,5-difluoropyridin-3-yl)ethyl (1-methyl-4-(5-(3-phenylbicyclo[1.1.1]pentane-1-carboxamido)pvidin-2-yl)-1H-1,2,3-triazol-5-yl)carbamate]
37000	CC(=O)Nc1ccc(-c2nnn(C)c2NC(=O)O[C@H](CF)c2cccc(F)c2)nc1C [Compound 2, (S)-2-fluoro-1-(3-fluorophenyl)ethyl (4-(5-acetamido-6-methylpyridin-2-yl)-1-methyl-1H-1,2,3-triazol-5-yl)carbamate]
186	C[C@@H](OC(=O)Nc1c(-c2ccc(NC(=O)C3(C#N)CC3)c(Cl)n2)nnn1C)c1cc(F)cnc1F [Compound 5, (R)-1-(2,5-difluoropyridin-3-yl)ethyl (4-(6-chloro-5-(1-cyanocyclopropane-1-carboxamido)pyridin-2-yl)-1-methyl-1H-1,2,3-triazol-5-yl)carbamate]
365	C[C@@H](OC(=O)Nc1c(-c2ccc(NC(=O)c3ccc(C45CC(C4)C5)cc3)cn2)nnn1C)c1cc(F)cnc1F [Compound 11, (R)-1-(2,5-difluoropyridin-3-yl)ethyl (4-(5-(4-(bicyclo[1.1.1]pentan-1-yl)benzamido)pyridin-2-14)-1-methyl-1H-1,2,3-triazol-5-yl)carbamate]
152	C[C@@H](OC(=O)Nc1c(-c2ccc(NC(=O)C34CC(OS(C)(=O)=O)(C3)C4)cn2)nnn1C)c1cccnc1Cl [Compound 13, (R)-3-((6-(5-(((1-(2-chloropyridin-3-yl)ethoxy)carbonyl)amino)-1-methyl-1H-1,2,3-triazol-4-yl)pyridin-3-yl)carbamoyl)bicyclo[1.1.1]pentan-1-yl methanesulfonate]
2770	C[C@@H](OC(=O)Nc1c(-c2ccc(NC(=O)C3(O)CC3)cn2)nnn1C)c1cccnc1Cl [Compound 3, (R)-1-(2-chloropyridin-3-yl)ethyl (4-(5-(1-hydroxycyclopropane-1-carboxamido)pyridin-2-yl)-1-methyl-1H-1,2,3-triazol-5-yl)carbamate]
345	C[C@@H](OC(=O)Nc1c(-c2ccc(NC(=O)C(F)(F)F)cn2)nnn1C)c1cccc(F)c1 [Compound 1, (R)-1-(3-fluorophenyl)ethyl (1-methyl-4-(5-(2,2,2-trifluoroacetamido)pyridin-2-yl)-1H-1,2,3-triazol-5-yl)carbamate]
2050	CC(=O)Nc1ccc(-c2nnn(C)c2NC(=O)O[C@H](C)c2cc(F)cnc2F)nc1 [Compound 12, (R)-1-(2,5-difluoropyridin-3-yl)ethyl (4-(5-acetamidopyridin-2-yl)-1-methyl-1H-1,2,3-triazol-5-yl)carbamate]
